# Assay results: PubChem BioAssay (NCI)
#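 Five compound concentrations were applied to cells in 96-well plates for 48 hours; endpoints were derived by simple linear interpolation of the resulting dose-response curve. Definition used: TGI = concentration required for complete inhibition of growth.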
# How the values were obtained:
# Assay in all cases: DTP human tumour cell line panel, 48 h
# HL-60(TB) leukemia = tested on: HL-60(TB) leukemia
# EKVX NSCLC = tested on: EKVX NSCLC
# CCRF-CEM leukemia = tested on: CCRF-CEM leukemia
# DMS 273 small cell lung = tested on: DMS 273 small cell lung
# OVCAR-8 ovarian = tested on: OVCAR-8 ovarian
# LOX IMVI melanoma = tested on: LOX IMVI melanoma
# HT29 colon = tested on: HT29 colon
# TK-10 renal = tested on: TK-10 renal
# K-562 leukemia = tested on: K-562 leukemia
# DLD-1 colon = tested on: DLD-1 colon
# COLO 205 colon = tested on: COLO 205 colon
# IGROV1 ovarian = tested on: IGROV1 ovarian
# A549 NSCLC = tested on: A549 NSCLC
# SF-268 CNS = tested on: SF-268 CNS
# HOP-92 NSCLC = tested on: HOP-92 NSCLC
# SNB-75 CNS = tested on: SNB-75 CNS
# SF-295 CNS = tested on: SF-295 CNS
# SF-539 CNS = tested on: SF-539 CNS
# M19-MEL melanoma = tested on: M19-MEL melanoma
# OVCAR-3 ovarian = tested on: OVCAR-3 ovarian
# UACC-62 melanoma = tested on: UACC-62 melanoma
# SK-OV-3 ovarian = tested on: SK-OV-3 ovarian
# NCI-H226 lung = tested on: NCI-H226 lung
# SNB-78 CNS = tested on: SNB-78 CNS
# UO-31 renal = tested on: UO-31 renal
# KM12 colon = tested on: KM12 colon
# UACC-257 melanoma = tested on: UACC-257 melanoma
# SN12C renal = tested on: SN12C renal
# NCI-H23 lung = tested on: NCI-H23 lung
# SK-MEL-28 melanoma = tested on: SK-MEL-28 melanoma
# HOP-62 NSCLC = tested on: HOP-62 NSCLC
# DMS 114 small cell lung = tested on: DMS 114 small cell lung
# MALME-3M melanoma = tested on: MALME-3M melanoma
# A498 renal = tested on: A498 renal
# KM20L2 colon = tested on: KM20L2 colon
# SW-620 colon = tested on: SW-620 colon
# RPMI-8226 leukemia = tested on: RPMI-8226 leukemia
# CAKI-1 renal = tested on: CAKI-1 renal
# 786-0 renal = tested on: 786-0 renal
# SK-MEL-5 melanoma = tested on: SK-MEL-5 melanoma
# M14 melanoma = tested on: M14 melanoma
# OVCAR-4 ovarian = tested on: OVCAR-4 ovarian
# RXF 393 renal = tested on: RXF 393 renal
# SK-MEL-2 melanoma = tested on: SK-MEL-2 melanoma
# HCC-2998 colon = tested on: HCC-2998 colon
# XF 498 CNS = tested on: XF 498 CNS
# MOLT-4 leukemia = tested on: MOLT-4 leukemia
# OVCAR-5 ovarian = tested on: OVCAR-5 ovarian
# LXFL 529 NSCLC = tested on: LXFL 529 NSCLC
# HCT-15 colon = tested on: HCT-15 colon
# HOP-18 NSCLC = tested on: HOP-18 NSCLC
# ACHN renal = tested on: ACHN renal
# HCT-116 colon = tested on: HCT-116 colon
# SNB-19 CNS = tested on: SNB-19 CNS
# NCI-H460 lung = tested on: NCI-H460 lung
# U251 CNS = tested on: U251 CNS
# SR leukemia = tested on: SR leukemia
# NCI-H522 lung = tested on: NCI-H522 lung
smiles,measurement,setting,value
O=C1[C@@H]2C(c3ccc(Cl)cc3Cl)=NO[C@@H]2C(=O)N1c1ccc(Cc2ccc(N3C(=O)[C@H]4C(c5ccc(Cl)cc5Cl)=NO[C@H]4C3=O)cc2)cc1,TGI,HL-60(TB) leukemia,48.8 µM
same,TGI,EKVX NSCLC,> 100 µM
same,TGI,CCRF-CEM leukemia,> 100 µM
same,TGI,DMS 273 small cell lung,> 100 µM
same,TGI,OVCAR-8 ovarian,> 100 µM
same,TGI,LOX IMVI melanoma,> 100 µM
same,TGI,HT29 colon,> 100 µM
same,TGI,TK-10 renal,> 100 µM
same,TGI,K-562 leukemia,> 100 µM
same,TGI,DLD-1 colon,> 100 µM
same,TGI,COLO 205 colon,> 100 µM
same,TGI,IGROV1 ovarian,> 100 µM
same,TGI,A549 NSCLC,> 100 µM
same,TGI,SF-268 CNS,> 100 µM
same,TGI,HOP-92 NSCLC,41.4 µM
same,TGI,SNB-75 CNS,> 100 µM
same,TGI,SF-295 CNS,> 100 µM
same,TGI,SF-539 CNS,> 100 µM
same,TGI,M19-MEL melanoma,> 100 µM
same,TGI,OVCAR-3 ovarian,> 100 µM
same,TGI,UACC-62 melanoma,> 100 µM
same,TGI,SK-OV-3 ovarian,> 100 µM
same,TGI,NCI-H226 lung,> 100 µM
same,TGI,SNB-78 CNS,> 100 µM
same,TGI,UO-31 renal,> 100 µM
same,TGI,KM12 colon,> 100 µM
same,TGI,UACC-257 melanoma,> 100 µM
same,TGI,SN12C renal,> 100 µM
same,TGI,NCI-H23 lung,> 100 µM
same,TGI,SK-MEL-28 melanoma,> 100 µM
same,TGI,HOP-62 NSCLC,> 100 µM
same,TGI,DMS 114 small cell lung,> 100 µM
same,TGI,MALME-3M melanoma,> 100 µM
same,TGI,A498 renal,> 100 µM
same,TGI,KM20L2 colon,> 100 µM
same,TGI,SW-620 colon,> 100 µM
same,TGI,RPMI-8226 leukemia,> 100 µM
same,TGI,CAKI-1 renal,> 100 µM
same,TGI,786-0 renal,> 100 µM
same,TGI,SK-MEL-5 melanoma,> 100 µM
same,TGI,M14 melanoma,> 100 µM
same,TGI,OVCAR-4 ovarian,> 100 µM
same,TGI,RXF 393 renal,68.8 µM
same,TGI,SK-MEL-2 melanoma,> 100 µM
same,TGI,HCC-2998 colon,> 100 µM
same,TGI,XF 498 CNS,> 100 µM
same,TGI,MOLT-4 leukemia,> 100 µM
same,TGI,OVCAR-5 ovarian,> 100 µM
same,TGI,LXFL 529 NSCLC,52.2 µM
same,TGI,HCT-15 colon,> 100 µM
same,TGI,HOP-18 NSCLC,> 100 µM
CC(=O)O[C@]12CCCCC1C1(O)C(O)CCCCC12 (some centres undefined),TGI,HL-60(TB) leukemia,> 100 µM
same,TGI,EKVX NSCLC,> 100 µM
same,TGI,CCRF-CEM leukemia,> 100 µM
same,TGI,ACHN renal,> 100 µM
same,TGI,DMS 273 small cell lung,> 100 µM
same,TGI,OVCAR-8 ovarian,> 100 µM
same,TGI,HCT-116 colon,> 100 µM
same,TGI,LOX IMVI melanoma,> 100 µM
same,TGI,HT29 colon,> 100 µM
same,TGI,TK-10 renal,> 100 µM
same,TGI,K-562 leukemia,> 100 µM
same,TGI,SNB-19 CNS,> 100 µM
same,TGI,COLO 205 colon,> 100 µM
same,TGI,A549 NSCLC,> 100 µM
same,TGI,SF-268 CNS,> 100 µM
same,TGI,SNB-75 CNS,> 100 µM
same,TGI,SF-295 CNS,> 100 µM
same,TGI,M19-MEL melanoma,> 100 µM
same,TGI,UACC-62 melanoma,> 100 µM
same,TGI,SK-OV-3 ovarian,> 100 µM
same,TGI,NCI-H226 lung,> 100 µM
same,TGI,SNB-78 CNS,> 100 µM
same,TGI,NCI-H460 lung,> 100 µM
same,TGI,U251 CNS,> 100 µM
same,TGI,UO-31 renal,> 100 µM
same,TGI,KM12 colon,> 100 µM
same,TGI,UACC-257 melanoma,> 100 µM
same,TGI,SN12C renal,> 100 µM
same,TGI,NCI-H23 lung,> 100 µM
same,TGI,SK-MEL-28 melanoma,> 100 µM
same,TGI,HOP-62 NSCLC,> 100 µM
same,TGI,DMS 114 small cell lung,> 100 µM
same,TGI,MALME-3M melanoma,> 100 µM
same,TGI,KM20L2 colon,> 100 µM
same,TGI,SR leukemia,> 100 µM
same,TGI,SW-620 colon,> 100 µM
same,TGI,RPMI-8226 leukemia,> 100 µM
same,TGI,786-0 renal,> 100 µM
same,TGI,SK-MEL-5 melanoma,> 100 µM
same,TGI,M14 melanoma,> 100 µM
same,TGI,OVCAR-4 ovarian,> 100 µM
same,TGI,RXF 393 renal,> 100 µM
same,TGI,SK-MEL-2 melanoma,> 100 µM
same,TGI,MOLT-4 leukemia,> 100 µM
same,TGI,NCI-H522 lung,> 100 µM
same,TGI,LXFL 529 NSCLC,> 100 µM
same,TGI,HCT-15 colon,> 100 µM
same,TGI,HOP-18 NSCLC,> 100 µM
